Data as given in US20090215807A1, “Novel Diazaspiroalkanes and Their Use for Treatment of CCR8 Mediated Diseases” (priority 2005, published 2009).

Experiments:
[1] = target: T1, human recombinant chemokine CCR8 receptor (Homo sapiens, UniProt P51685); assay: CCL1 SPA binding assay; conditions: inhibition of 125I CCL1 binding to CCR8 membranes from transfected CHO-K1 cells
T1 construct: purchased Euroscreen ES-136-M; host or cells: CHO-K1 cells (membranes)
Procedure: 1 μl of DMSO was added to the blank control wells and 1 μl unlabeled CCL1 (300 nM) was added to background control wells. 50 μl of the SPA bead-membrane mixture was added into each well. […] Plates were then incubated at RT with shaking (700 rpm) for 90 minutes followed by 30 minutes at RT without shaking. The plate was read in a Wallac MicroBeta counter for 2 minutes/well.

[2] = Human microsomal stability assay; type: in vitro ADME; conditions: human microsomes (Xenotech); human microsomes 1 mg protein/mL, compound 2.5 μM, NADPH 2 mM, pH 7.4, 37° C.; read-out: Intrinsic clearance
Procedure: Human Microsomal Stability Assay
Samples at four time-points (0, 5, 15 and 30 minutes) are withdrawn and the enzymatic reaction is terminated by protein precipitation with 1% acetic acid in acetonitrile. The incubations are performed on a thermostated plate (37° C.) placed on a Tecan worktable, and all liquid handling was performed robotically. After centrifugation of the samples, the supernatants are pooled in sets of four before they are analysed by liquid chromatography with tandem mass spectrometry detection (LC/MS/MS) using multiple reaction monitoring (MRM). Data are presented as intrinsic Clearance (CLint), μl/min/mg protein, calculated from the initial linear part of the compound disappearance curve.

T1 sequence (P51685 whole entry): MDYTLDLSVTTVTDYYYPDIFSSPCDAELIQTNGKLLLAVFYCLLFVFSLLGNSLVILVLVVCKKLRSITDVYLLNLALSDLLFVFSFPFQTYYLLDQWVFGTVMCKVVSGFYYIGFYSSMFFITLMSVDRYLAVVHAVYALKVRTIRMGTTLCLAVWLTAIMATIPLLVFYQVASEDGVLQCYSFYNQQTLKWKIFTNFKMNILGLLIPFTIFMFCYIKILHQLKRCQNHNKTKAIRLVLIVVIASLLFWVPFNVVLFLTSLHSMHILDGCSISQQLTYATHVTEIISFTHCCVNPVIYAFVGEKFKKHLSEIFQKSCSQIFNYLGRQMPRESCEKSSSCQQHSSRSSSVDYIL

CC(C)COc1ccccc1CN1CCC2(CC1)CCN(C(=O)c1cc[n+]([O-])cc1)CC2 [A, 3-(2-isobutoxybenzyl)-9-(1-oxidoisonicotinoyl)-3,9-diazaspiro[5.5]undecane, reference compound]
IC50 [1]: 2.67 µM

CC(C)COc1ccccc1CN1CCC2(CC1)CCN(C(=O)c1ccc[n+]([O-])c1)CC2 [B, 3-(2-isobutoxybenzyl)-9-[(1-oxidopyridin-3-yl)carbonyl]-3,9-diazaspiro[5.5]undecane, reference compound]
IC50 [1]: 3.05 µM

O=C(c1cccc[n+]1[O-])N1CCC2(CCN(Cc3cccc(Oc4ccccc4)c3)CC2)CC1 [Example 1, 3-[(1-oxidopyridin-2-yl)carbonyl]-9-(3-phenoxybenzyl)-3,9-diazaspiro[5.5]undecane]
IC50 [1]: 0.193 µM
microsomal CLint at 2.5 μM [2]: < 10 µL/min/mg

O=C(c1cc[n+]([O-])cc1)N1CCC2(CCN(Cc3cccc(Oc4ccccc4)c3)CC2)CC1 [Example 2, 3-(1-oxidoisonicotinoyl)-9-(3-phenoxybenzyl)-3,9-diazaspiro[5.5]undecane]
IC50 [1]: 0.305 µM
microsomal CLint at 2.5 μM [2]: < 10 µL/min/mg

COc1ccccc1Oc1ccccc1CN1CCC2(CC1)CCN(C(=O)c1cccc[n+]1[O-])CC2 [Example 3, 3-[2-(2-methoxyphenoxy)benzyl]-9-[(1-oxidopyridin-2-yl)carbonyl]-3,9-diazaspiro[5.5]undecane]
IC50 [1]: 0.087 µM
microsomal CLint at 2.5 μM [2]: < 10 µL/min/mg

COc1ccccc1Oc1ccccc1CN1CCC2(CC1)CCN(C(=O)c1cc[n+]([O-])cc1)CC2 [Example 4, 3-[2-(2-methoxyphenoxy)benzyl]-9-(1-oxidoisonicotinoyl)-3,9-diazaspiro[5.5]undecane]
IC50 [1]: 0.117 µM
microsomal CLint at 2.5 μM [2]: < 10 µL/min/mg

COc1ccccc1Oc1ccccc1CN1CCC2(CC1)CCN(C(=O)c1ccc[n+]([O-])c1)CC2 [Example 5, 3-[2-(2-methoxyphenoxy)benzyl]-9-[(1-oxidopyridin-3-yl)carbonyl]-3,9-diazaspiro[5.5]undecane]
IC50 [1]: 0.268 µM
microsomal CLint at 2.5 μM [2]: < 10 µL/min/mg

COc1ccccc1Oc1cccc(CN2CCC3(CC2)CCN(C(=O)c2ccc[n+]([O-])c2)CC3)c1 [Example 8, 3-[3-(2-methoxyphenoxy)benzyl]-9-[(1-oxidopyridin-3-yl)carbonyl]-3,9-diazaspiro[5.5]undecane]
IC50 [1]: 0.207 µM
microsomal CLint at 2.5 μM [2]: < 10 µL/min/mg

COc1ccccc1Oc1ccccc1CN1CCC2(CC1)CCN(C(=O)c1ccncc1)CC2 [X, 3-isonicotinoyl-9-[2-(2-methoxyphenoxy)benzyl]-3,9-diazaspiro[5.5]undecane, reference compound]
microsomal CLint at 2.5 μM [2]: 89 µL/min/mg

COc1ccccc1Oc1cccc(CN2CCC3(CC2)CCN(C(=O)c2ccncc2)CC3)c1 [Y, 3-isonicotinoyl-9-[3-(2-methoxyphenoxy)benzyl]-3,9-diazaspiro[5,5]undecane, reference compound]
microsomal CLint at 2.5 μM [2]: 183 µL/min/mg
